In patent US10780074B2, “Compounds and uses thereof” (Sunovion Pharmaceuticals Inc., priority 2017, dated 2020):
Where a name gives a salt, the structure may show the parent alone.

Tested on: behaviors of compound-treated mice
Assay: Neuropharmacological Assay (SmartCube)
Type: in vivo
Settings: for minimal effective dose: Mus musculus, ip, 0.25 h, dose having 50% or more total activity in SmartCube, i.p., read-out: MED (minimal effective dose); for AD: ADHD (probability that activity matches class) / AG: analgesic (probability that activity matches class) / AX: anxiolytic (probability that activity matches class) / CE: cognitive enhancer (probability that activity matches class) / DP: anti-depressant (probability that activity matches class) / MS: mood stabilizer (probability that activity matches class) / PS: anti-psychotic (probability that activity matches class) / SD: sedative hypnotic (probability that activity matches class) / UN: uncharacterized CNS activity (probability that activity matches class): i.p. 15 min before behavioral test, most efficacious dose(s) of 3 doses
In short: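 Behavioral signatures were captured automatically by video, and each drug class received a probability for the best of three i.p. doses given 15 min pre-test (vehicle: Pharmasolve/PEG/propylene glycol). Potency is given as MED, the lowest mpk dose (typically 0.3–30) reaching 50% or more total activity.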

CNC[C@H]1OCCCc2c(-c3ccncc3)cccc21 (single isomer, unassigned) [Compound 149]
minimal effective dose: ≤ 3 mg/kg
AD: ADHD (probability that activity matches class): ++ (5% ≤ ++ <25%)
AG: analgesic (probability that activity matches class): + (LOQ ≤ + <5%)
AX: anxiolytic (probability that activity matches class): ++ (5% ≤ ++ <25%)
CE: cognitive enhancer (probability that activity matches class): + (LOQ ≤ + <5%)
DP: anti-depressant (probability that activity matches class): ++++ (50% ≤ ++++)
MS: mood stabilizer (probability that activity matches class): + (LOQ ≤ + <5%)
PS: anti-psychotic (probability that activity matches class): + (LOQ ≤ + <5%)
SD: sedative hypnotic (probability that activity matches class): + (LOQ ≤ + <5%)
UN: uncharacterized CNS activity (probability that activity matches class): ++ (5% ≤ ++ <25%)

NC[C@@H]1OCCCc2c(-c3ccncc3)cccc21 (single isomer, unassigned) [Compound 150]
minimal effective dose: 10 to 30 mg/kg
AD: ADHD (probability that activity matches class): + (LOQ ≤ + <5%)
AG: analgesic (probability that activity matches class): + (LOQ ≤ + <5%)
AX: anxiolytic (probability that activity matches class): ++ (5% ≤ ++ <25%)
CE: cognitive enhancer (probability that activity matches class): + (LOQ ≤ + <5%)
DP: anti-depressant (probability that activity matches class): ++ (5% ≤ ++ <25%)
MS: mood stabilizer (probability that activity matches class): + (LOQ ≤ + <5%)
PS: anti-psychotic (probability that activity matches class): + (LOQ ≤ + <5%)
SD: sedative hypnotic (probability that activity matches class): + (LOQ ≤ + <5%)
UN: uncharacterized CNS activity (probability that activity matches class): + (LOQ ≤ + <5%)

NC[C@H]1OCCCc2c(-c3ccncc3)cccc21 (single isomer, unassigned) [Compound 151]
minimal effective dose: 3 to 10 mg/kg
AD: ADHD (probability that activity matches class): + (LOQ ≤ + <5%)
AG: analgesic (probability that activity matches class): + (LOQ ≤ + <5%)
AX: anxiolytic (probability that activity matches class): ++ (5% ≤ ++ <25%)
CE: cognitive enhancer (probability that activity matches class): + (LOQ ≤ + <5%)
DP: anti-depressant (probability that activity matches class): ++++ (50% ≤ ++++)
MS: mood stabilizer (probability that activity matches class): + (LOQ ≤ + <5%)
PS: anti-psychotic (probability that activity matches class): + (LOQ ≤ + <5%)
SD: sedative hypnotic (probability that activity matches class): + (LOQ ≤ + <5%)
UN: uncharacterized CNS activity (probability that activity matches class): + (LOQ ≤ + <5%)

CNC[C@@H]1OCCCc2c(-c3ccccn3)cccc21 (single isomer, unassigned) [Compound 156, hydrochloride salt]
minimal effective dose: 10 to 30 mg/kg
AD: ADHD (probability that activity matches class): + (LOQ ≤ + <5%)
AG: analgesic (probability that activity matches class): + (LOQ ≤ + <5%)
AX: anxiolytic (probability that activity matches class): + (LOQ ≤ + <5%)
CE: cognitive enhancer (probability that activity matches class): + (LOQ ≤ + <5%)
DP: anti-depressant (probability that activity matches class): + (LOQ ≤ + <5%)
MS: mood stabilizer (probability that activity matches class): + (LOQ ≤ + <5%)
PS: anti-psychotic (probability that activity matches class): + (LOQ ≤ + <5%)
SD: sedative hypnotic (probability that activity matches class): + (LOQ ≤ + <5%)
UN: uncharacterized CNS activity (probability that activity matches class): + (LOQ ≤ + <5%)

CNC[C@H]1OCCCc2c(-c3ccccn3)cccc21 (single isomer, unassigned) [Compound 157, hydrochloride salt]
minimal effective dose: 10 to 30 mg/kg
AD: ADHD (probability that activity matches class): + (LOQ ≤ + <5%)
AG: analgesic (probability that activity matches class): + (LOQ ≤ + <5%)
AX: anxiolytic (probability that activity matches class): ++ (5% ≤ ++ <25%)
CE: cognitive enhancer (probability that activity matches class): + (LOQ ≤ + <5%)
DP: anti-depressant (probability that activity matches class): + (LOQ ≤ + <5%)
MS: mood stabilizer (probability that activity matches class): + (LOQ ≤ + <5%)
PS: anti-psychotic (probability that activity matches class): + (LOQ ≤ + <5%)
SD: sedative hypnotic (probability that activity matches class): + (LOQ ≤ + <5%)
UN: uncharacterized CNS activity (probability that activity matches class): + (LOQ ≤ + <5%)

CNC[C@@H]1OCCCc2c(-c3ccncn3)cccc21 (single isomer, unassigned) [Compound 164, hydrochloride salt]
minimal effective dose: 10 to 30 mg/kg
AD: ADHD (probability that activity matches class): + (LOQ ≤ + <5%)
AG: analgesic (probability that activity matches class): + (LOQ ≤ + <5%)
AX: anxiolytic (probability that activity matches class): + (LOQ ≤ + <5%)
CE: cognitive enhancer (probability that activity matches class): + (LOQ ≤ + <5%)
DP: anti-depressant (probability that activity matches class): + (LOQ ≤ + <5%)
MS: mood stabilizer (probability that activity matches class): + (LOQ ≤ + <5%)
PS: anti-psychotic (probability that activity matches class): + (LOQ ≤ + <5%)
SD: sedative hypnotic (probability that activity matches class): + (LOQ ≤ + <5%)
UN: uncharacterized CNS activity (probability that activity matches class): + (LOQ ≤ + <5%)

CNC[C@H]1OCCCc2c(-c3ccncn3)cccc21 (single isomer, unassigned) [Compound 165, hydrochloride salt]
minimal effective dose: 10 to 30 mg/kg
AD: ADHD (probability that activity matches class): + (LOQ ≤ + <5%)
AG: analgesic (probability that activity matches class): + (LOQ ≤ + <5%)
AX: anxiolytic (probability that activity matches class): + (LOQ ≤ + <5%)
CE: cognitive enhancer (probability that activity matches class): + (LOQ ≤ + <5%)
DP: anti-depressant (probability that activity matches class): ++ (5% ≤ ++ <25%)
MS: mood stabilizer (probability that activity matches class): + (LOQ ≤ + <5%)
PS: anti-psychotic (probability that activity matches class): + (LOQ ≤ + <5%)
SD: sedative hypnotic (probability that activity matches class): + (LOQ ≤ + <5%)
UN: uncharacterized CNS activity (probability that activity matches class): + (LOQ ≤ + <5%)

NC[C@@H]1OCCCc2c(-c3ccncn3)cccc21 (single isomer, unassigned) [Compound 166]
minimal effective dose: 10 to 30 mg/kg
AD: ADHD (probability that activity matches class): + (LOQ ≤ + <5%)
AG: analgesic (probability that activity matches class): + (LOQ ≤ + <5%)
AX: anxiolytic (probability that activity matches class): + (LOQ ≤ + <5%)
CE: cognitive enhancer (probability that activity matches class): + (LOQ ≤ + <5%)
DP: anti-depressant (probability that activity matches class): + (LOQ ≤ + <5%)
MS: mood stabilizer (probability that activity matches class): + (LOQ ≤ + <5%)
PS: anti-psychotic (probability that activity matches class): + (LOQ ≤ + <5%)
SD: sedative hypnotic (probability that activity matches class): + (LOQ ≤ + <5%)
UN: uncharacterized CNS activity (probability that activity matches class): + (LOQ ≤ + <5%)

NC[C@H]1OCCCc2c(-c3ccncn3)cccc21 (single isomer, unassigned) [Compound 167]
minimal effective dose: 10 to 30 mg/kg
AD: ADHD (probability that activity matches class): + (LOQ ≤ + <5%)
AG: analgesic (probability that activity matches class): + (LOQ ≤ + <5%)
AX: anxiolytic (probability that activity matches class): + (LOQ ≤ + <5%)
CE: cognitive enhancer (probability that activity matches class): + (LOQ ≤ + <5%)
DP: anti-depressant (probability that activity matches class): + (LOQ ≤ + <5%)
MS: mood stabilizer (probability that activity matches class): + (LOQ ≤ + <5%)
PS: anti-psychotic (probability that activity matches class): + (LOQ ≤ + <5%)
SD: sedative hypnotic (probability that activity matches class): + (LOQ ≤ + <5%)
UN: uncharacterized CNS activity (probability that activity matches class): + (LOQ ≤ + <5%)

CNC[C@@H]1OCCCc2c(-c3cncs3)cccc21 (single isomer, unassigned) [Compound 168, hydrochloride salt]
minimal effective dose: ≤ 3 mg/kg
AD: ADHD (probability that activity matches class): ++ (5% ≤ ++ <25%)
AG: analgesic (probability that activity matches class): + (LOQ ≤ + <5%)
AX: anxiolytic (probability that activity matches class): ++ (5% ≤ ++ <25%)
CE: cognitive enhancer (probability that activity matches class): + (LOQ ≤ + <5%)
DP: anti-depressant (probability that activity matches class): ++++ (50% ≤ ++++)
MS: mood stabilizer (probability that activity matches class): + (LOQ ≤ + <5%)
PS: anti-psychotic (probability that activity matches class): + (LOQ ≤ + <5%)
SD: sedative hypnotic (probability that activity matches class): ++ (5% ≤ ++ <25%)
UN: uncharacterized CNS activity (probability that activity matches class): ++ (5% ≤ ++ <25%)

CNC[C@H]1OCCCc2c(-c3cncs3)cccc21 (single isomer, unassigned) [Compound 169, hydrochloride salt]
minimal effective dose: 10 to 30 mg/kg
AD: ADHD (probability that activity matches class): + (LOQ ≤ + <5%)
AG: analgesic (probability that activity matches class): + (LOQ ≤ + <5%)
AX: anxiolytic (probability that activity matches class): + (LOQ ≤ + <5%)
CE: cognitive enhancer (probability that activity matches class): + (LOQ ≤ + <5%)
DP: anti-depressant (probability that activity matches class): + (LOQ ≤ + <5%)
MS: mood stabilizer (probability that activity matches class): + (LOQ ≤ + <5%)
PS: anti-psychotic (probability that activity matches class): + (LOQ ≤ + <5%)
SD: sedative hypnotic (probability that activity matches class): + (LOQ ≤ + <5%)
UN: uncharacterized CNS activity (probability that activity matches class): + (LOQ ≤ + <5%)

NC[C@@H]1OCCCc2c(-c3cncs3)cccc21 (single isomer, unassigned) [Compound 170, hydrochloride salt]
minimal effective dose: 3 to 10 mg/kg
AD: ADHD (probability that activity matches class): + (LOQ ≤ + <5%)
AG: analgesic (probability that activity matches class): + (LOQ ≤ + <5%)
AX: anxiolytic (probability that activity matches class): ++ (5% ≤ ++ <25%)
CE: cognitive enhancer (probability that activity matches class): + (LOQ ≤ + <5%)
DP: anti-depressant (probability that activity matches class): ++ (5% ≤ ++ <25%)
MS: mood stabilizer (probability that activity matches class): + (LOQ ≤ + <5%)
PS: anti-psychotic (probability that activity matches class): + (LOQ ≤ + <5%)
SD: sedative hypnotic (probability that activity matches class): ++ (5% ≤ ++ <25%)
UN: uncharacterized CNS activity (probability that activity matches class): +++ (25% ≤ +++ <50%)

NC[C@H]1OCCCc2c(-c3cncs3)cccc21 (single isomer, unassigned) [Compound 171, hydrochloride salt]
minimal effective dose: 10 to 30 mg/kg
AD: ADHD (probability that activity matches class): + (LOQ ≤ + <5%)
AG: analgesic (probability that activity matches class): + (LOQ ≤ + <5%)
AX: anxiolytic (probability that activity matches class): + (LOQ ≤ + <5%)
CE: cognitive enhancer (probability that activity matches class): + (LOQ ≤ + <5%)
DP: anti-depressant (probability that activity matches class): + (LOQ ≤ + <5%)
MS: mood stabilizer (probability that activity matches class): + (LOQ ≤ + <5%)
PS: anti-psychotic (probability that activity matches class): + (LOQ ≤ + <5%)
SD: sedative hypnotic (probability that activity matches class): + (LOQ ≤ + <5%)
UN: uncharacterized CNS activity (probability that activity matches class): + (LOQ ≤ + <5%)
